{"source": "patent US20240408167A1", "about": "“COMPOSITION FOR TREATING OCULAR DISEASES CONTAINING PEPTIDE” (Encuragen Inc., priority 2023, published 2024)", "key": {"BALB/3T3 clone A31 cells": {"test_system": "BALB/3T3 clone A31 cells", "experiment": "cells", "assay_type": "cell-based", "protocol": "To evaluate the phototoxicity of (PEG)-BHD1028, the potential phototoxicity of (PEG)-BHD1028 was measured in the BALB/3T3 clone A31 cells after UV exposure. The test substance and the positive control group (chlorpromazine hydrochloride; CPZ) were dissolved in a Hank's Balanced Salt Solution (HBSS) and then diluted with a Hank's Balanced Salt Solution (HBSS). The cells were trypsinized and counted. Thereafter, 1×10^4 cells per well were seeded in a 96-well plate and cultured for approximately 24 hours before treating the test samples. One hour after the sample treatment, the plate was irradiated with a UV irradiation system (UVA, 365 nm). After UV irradiation, the plate was incubated for 24 hours. The cell viability of the cultured cells was confirmed by measuring the absorbance at 540 nm using the neutral red staining method."}, "rabbit DED model": {"test_system": "rabbit DED model", "experiment": "Schirmer tear test (STT), rabbit DED model", "assay_type": "in vivo", "protocol": "The rabbit DED model was induced by locally administrating 0.1% benzalkoniumchloride (BAC) drops (Sigma, St. Louis, MO, USA) twice a day (8 a.m. and 4 p.m.). Before the BAC treatment, the control group (baseline, naive) underwent standard dry eye clinical tests such as the Schirmer tear test (STT), TBUT, and corneal staining score (CSS) test. After the BAC treatment, the induction of dry eye syndrome was confirmed, and the test substance was administered for 10 days while maintaining the induction of dry eye syndrome. […] The test substance was locally applied bis in die (BID) to both eyes.\nThe tear secretion was measured for 20 seconds by contacting a cotton thread containing phenol red (Zone-Quick™; Oasis Medical, Inc., Glendora, CA, USA) to the conjunctival sac on the lateral canthus of the mouse eye. After measuring the length using a Nikon SMZ1500 microscope, the length substituted to the prescribed formula, and the value was converted to volume. The tear production of the rabbits was measured by a modified Schirmer tear test using Whatman 41 filter paper strips (Tianjin Jingming New Technology Development Co., Ltd., Tianjin, China) on Day 0, Day 5, and Day 10. Eye examination of the rabbits was performed under anesthesia. The anesthesia was performed under sedation by performing intramuscular injection of xylazine (3 mg/kg, Rompun®; Bayer Korea, Korea) and intramuscular injection of 10 mg/kgtiletamine/zolazepam (Zoletil®, Virbac Laboratories, Carros, France). After adding 1 drop of proparacaine HCl 0.5% (Alcaine®, Alcon Korea Ltd., Seoul, Korea), excess tears and eye drops were removed with Weck-cel® […]. The wet length (mm) of the paper strip was read after 5 minutes."}, "[1]": {"experiment": "Viscosity of eye drops by rotational rheometer", "assay_type": "physicochemical", "settings": "shear rate 100 (1/s)", "description": "Based on the above information, sodium hyaluronate was set as the viscosity reagent."}, "[2]": {"test_system": "apoptotic cells in cornea and conjunctiva", "experiment": "Apoptotic cells by TUNEL, rabbit model", "assay_type": "in vivo", "settings": "for cell death rate in the conjunctiva: Day 10; for percentage of apoptotic cells per unit area, cornea: after 10 days", "protocol": "The eyes and appendages from each group were excised, fixed in the modified Davidson's solution, and embedded in paraffin, and the tissue sections were TUNEL-stained. In each section, the degree of apoptosis in the cornea and conjunctiva was measured using ZEN (Zeiss, Oberkochen, Germany) and Image J v1.51j8 (NIH, Bethesda, MD, USA) software programs.\nThe percentage of the apoptotic cells per unit area was evaluated after 10 days in the rabbit model. In the cornea, apoptotic cells were detected at a percentage of 35±6% in the normal control group and 74±2% in the vehicle group. In the 0.1%, 0.2%, and 0.4% (PEG)-BHD1028 treatment groups, the percentage was 40±12%, 39±3%, and 35±4%, respectively. […] In addition, the cell death rate in the conjunctiva was 7±5% in the normal control group and 56±4% in the vehicle group. The percentage in the 0.1%, 0.2% and 0.4% (PEG)-BHD1028 treatment groups was 35±4%, 26±3% and 19±4% on Day 10."}, "[3]": {"experiment": "Osmotic pressure of trehalose-mannitol composite formulations", "assay_type": "physicochemical", "settings": "trehalose-mannitol composite formulation", "protocol": "The osmotic pressure of the trehalose-only formulations according to the (PEG)-BHD1028 content (see Table 5) and the osmotic pressure of the trehalose-mannitol composite formulations according to the (PEG)-BHD1028 content (see Table 6) were measured, and reflecting the experimental results, the osmolarity including the 0.5% (PEG)-BHD1028 concentration was adjusted to about 300 mOsm/kg."}, "[4]": {"experiment": "Stability of eye drop formulations stored at 40° C., RP-HPLC", "assay_type": "physicochemical", "protocol": "Eye drops using (PEG)-BHD1028 were prepared by setting eye characteristics, pH, osmolarity, and viscosity as important parameters. To adjust the above parameters, various reagents and substances were added to the test formulation, which was stored at 40° C. to confirm the stability of the formulation. In addition, the reagents used in the target preparation were mainly determined by considering the stability of the drug and the suitability of the manufacturing process. The stability of the formulation was determined based on the RP-HPLC analysis data. The shelf life was set as the period before a single impurity reached 1.0 area %, reflecting the mean kinetic temperature (MKT).\nThe shelf life was calculated based on the stability data reflecting the mean kinetic temperature (MKT). […] Based on this calculation, the lifespan was calculated by multiplying the number of days immediately before the area % of a single impurity reached 1.0% by a factor of 5. The target shelf life was set at 6 months or longer at 25° C., and the stability of the trehalose-only formulation is expected to have a shelf life of about 7 months."}}, "note": "“And” between values parts separate entries of the source, which are not always exact repeats. Identical values can stand only once."}
{"substance": "NH2-Tyr-Tyr-Phe-Ala-Tyr-His-Pro-Asn-Ile-Pro-Gly-Leu-Tyr-Tyr-Phe-COOH (H-YYFAYHPNIPGLYYF-OH; also: PEGylated, site not given here (mPEG), acetate salt) [(PEG)-BHD1028]", "values": [{"measurement": "MPE (mean photo effect)", "setting": "BALB/3T3 clone A31 cells", "value": 0.003}, {"measurement": "PIF (photo irradiation factor)", "setting": "BALB/3T3 clone A31 cells", "value": 1.000}, {"measurement": "phototoxicity classification by PIF and MPE", "setting": "BALB/3T3 clone A31 cells", "value": "non-phototoxic"}, {"measurement": "IC50 UV (+Irr)", "setting": "BALB/3T3 clone A31 cells; BALB/3T3 clone A31 cells, UVA 365 nm irradiation, neutral red", "value": ">1000", "unit": "µg/mL"}, {"measurement": "IC50 UV (−Irr)", "setting": "BALB/3T3 clone A31 cells; BALB/3T3 clone A31 cells, without UV irradiation, neutral red", "value": ">1000", "unit": "µg/mL"}, {"measurement": "STT-2", "setting": "rabbit DED model; rabbit DED, 0.1% BID, Day 5", "value": "4.67 ± 0.65", "unit": "mm"}, {"measurement": "STT-2", "setting": "rabbit DED model; rabbit DED, 0.1% BID, Day 10", "value": "6.50 ± 0.87", "unit": "mm"}, {"measurement": "STT-2", "setting": "rabbit DED model; rabbit DED, 0.2% BID, Day 5", "value": "3.33 ± 0.51", "unit": "mm"}, {"measurement": "STT-2", "setting": "rabbit DED model; rabbit DED, 0.2% BID, Day 10", "value": "7.50 ± 0.99", "unit": "mm"}, {"measurement": "STT-2", "setting": "rabbit DED model; rabbit DED, 0.4% BID, Day 5", "value": "4.33 ± 0.45", "unit": "mm"}, {"measurement": "STT-2", "setting": "rabbit DED model; rabbit DED, 0.4% BID, Day 10", "value": "6.67 ± 1.02", "unit": "mm"}, {"measurement": "STT-2", "setting": "rabbit DED model; rabbit, 0.1% group, Baseline (before BAC treatment)", "value": "6.67 ± 0.96", "unit": "mm"}, {"measurement": "STT-2", "setting": "rabbit DED model; rabbit, 0.1% group, Day 0 (EDE), before treatment", "value": "3.00 ± 1.22", "unit": "mm"}, {"measurement": "STT-2", "setting": "rabbit DED model; rabbit, 0.2% group, Baseline (before BAC treatment)", "value": "8.50 ± 1.39", "unit": "mm"}, {"measurement": "STT-2", "setting": "rabbit DED model; rabbit, 0.2% group, Day 0 (EDE), before treatment", "value": "3.33 ± 1.28", "unit": "mm"}, {"measurement": "STT-2", "setting": "rabbit DED model; rabbit, 0.4% group, Baseline (before BAC treatment)", "value": "9.17 ± 1.23", "unit": "mm"}, {"measurement": "STT-2", "setting": "rabbit DED model; rabbit, 0.4% group, Day 0 (EDE), before treatment", "value": "3.33 ± 1.22", "unit": "mm"}, {"measurement": "viscosity, Test result", "setting": "[1]; concentration 0.5%", "value": 0.009, "unit": "Pa · S"}, {"measurement": "viscosity, Test result", "setting": "[1]; concentration 1.5%", "value": 0.010, "unit": "Pa · S"}, {"measurement": "viscosity, Test result", "setting": "[1]; concentration 4.5%", "value": 0.014, "unit": "Pa · S"}, {"measurement": "cell death rate in the conjunctiva", "setting": "[2]; 0.1%", "value": "35±4", "unit": "%"}, {"measurement": "percentage of apoptotic cells per unit area, cornea", "setting": "[2]; 0.1%", "value": "40±12", "unit": "%"}, {"measurement": "cell death rate in the conjunctiva", "setting": "[2]; 0.2%", "value": "26±3", "unit": "%"}, {"measurement": "percentage of apoptotic cells per unit area, cornea", "setting": "[2]; 0.2%", "value": "39±3", "unit": "%"}, {"measurement": "cell death rate in the conjunctiva", "setting": "[2]; 0.4%", "value": "19±4", "unit": "%"}, {"measurement": "percentage of apoptotic cells per unit area, cornea", "setting": "[2]; 0.4%", "value": "35±4", "unit": "%"}, {"measurement": "osmotic pressure, Mean", "setting": "[3]; 0.5%", "value": 301.00, "unit": "mOsm/kg"}, {"measurement": "osmotic pressure, single measurements #1-#3", "setting": "[3]; 0.5%", "value": "301 mOsm/kg and 399 mOsm/kg and 303 mOsm/kg"}, {"measurement": "osmotic pressure, Mean", "setting": "[3]; 1.5%", "value": 309.33, "unit": "mOsm/kg"}, {"measurement": "osmotic pressure, single measurements #1-#3", "setting": "[3]; 1.5%", "value": "309 mOsm/kg and 312 mOsm/kg and 307 mOsm/kg"}, {"measurement": "osmotic pressure, Mean", "setting": "[3]; 4.5%", "value": 338.33, "unit": "mOsm/kg"}, {"measurement": "osmotic pressure, single measurements #1-#3", "setting": "[3]; 4.5%", "value": "338 mOsm/kg and 339 mOsm/kg"}, {"measurement": "formulation stability", "setting": "[4]; eye drops with sodium EDTA (0.5%), 40° C. for 25 days", "value": "stability was maintained"}, {"measurement": "formulation stability (impurities)", "setting": "[4]; eye drops with sodium bisulfate (0.03%), Day 7 at 40° C.", "value": "impurities rapidly increased"}, {"measurement": "impurities", "setting": "[4]; eye drops with sodium hyaluronate 0.1%, 40° C. for 37 days, all impurities", "value": "less than 1.0 area %"}, {"measurement": "formulation stability and pH, water versus PBS as diluent", "setting": "[4]; eye drops, between the two formulations", "value": "no significant difference in stability data and pH"}, {"measurement": "formulation stability", "setting": "[4]; formulations including PEG (PEG400, PEG5000, PEG3350) as osmotic reagent", "value": "considerably decomposed"}, {"measurement": "formulation stability", "setting": "[4]; formulations including salts such as KCl and NaCl, Day 6 at 40° C.", "value": "considerably decomposed"}, {"measurement": "formulation stability", "setting": "[4]; mannitol, trehalose, or a combination of mannitol and trehalose as osmotic reagent", "value": "stable"}]}
